± gives the expanded uncertainty stated by the source.
Conditions: 101.33 kPa, Liquid; for speed of sound: Pulse-echo method; for mass density: Vibrating tube method

CCCCC(=O)[O-].C[NH2+]CCO [2-hydroxy-N-methylethanaminium pentanoate]
Conditions | mass density [kg/m3] | speed of sound [m/s] | viscosity [mPa·s]
278.15 K | 1029.68 ± 2.2 | 1616.6 ± 2.1 | –
278.4 K | 1029.52 ± 2.2 | 1615.6 ± 2.1 | –
278.65 K | 1029.35 ± 2.2 | 1614.7 ± 2.1 | –
278.9 K | 1029.18 ± 2.2 | 1613.8 ± 2.1 | –
279.15 K | 1029.01 ± 2.2 | 1612.8 ± 2.1 | –
279.4 K | 1028.85 ± 2.2 | 1611.9 ± 2.1 | –
279.65 K | 1028.68 ± 2.2 | 1611 ± 2.1 | –
279.9 K | 1028.51 ± 2.2 | 1610.1 ± 2.1 | –
280.15 K | 1028.35 ± 2.2 | 1609.1 ± 2.1 | –
280.4 K | 1028.18 ± 2.2 | 1608.2 ± 2.1 | –
280.65 K | 1028.01 ± 2.2 | 1607.3 ± 2.1 | –
280.9 K | 1027.85 ± 2.2 | 1606.4 ± 2.1 | –
281.15 K | 1027.68 ± 2.2 | 1605.5 ± 2.1 | –
281.4 K | 1027.51 ± 2.2 | 1604.6 ± 2.1 | –
281.65 K | 1027.34 ± 2.2 | 1603.7 ± 2.1 | –
281.9 K | 1027.18 ± 2.2 | 1602.8 ± 2.1 | –
282.15 K | 1027.01 ± 2.2 | 1601.9 ± 2.1 | –
282.4 K | 1026.84 ± 2.2 | 1601 ± 2.1 | –
282.65 K | 1026.67 ± 2.2 | 1600.1 ± 2.1 | –
282.9 K | 1026.51 ± 2.2 | 1599.2 ± 2.1 | –
283.15 K | 1026.34 ± 2.2 | 1598.3 ± 2.1 | –
283.4 K | 1026.17 ± 2.2 | 1597.5 ± 2.1 | –
283.65 K | 1026.01 ± 2.2 | 1596.6 ± 2.1 | –
283.9 K | 1025.84 ± 2.2 | 1595.7 ± 2.1 | –
284.15 K | 1025.67 ± 2.2 | 1594.8 ± 2.1 | –
284.4 K | 1025.5 ± 2.2 | 1593.9 ± 2.1 | –
284.65 K | 1025.34 ± 2.2 | 1593.1 ± 2.1 | –
284.9 K | 1025.17 ± 2.2 | 1592.2 ± 2.1 | –
285.15 K | 1025 ± 2.2 | 1591.3 ± 2.1 | –
285.4 K | 1024.83 ± 2.2 | 1590.5 ± 2.1 | –
285.65 K | 1024.66 ± 2.2 | 1589.6 ± 2.1 | –
285.9 K | 1024.5 ± 2.2 | 1588.8 ± 2.1 | –
286.15 K | 1024.33 ± 2.2 | 1587.9 ± 2.1 | –
286.4 K | 1024.16 ± 2.2 | 1587.1 ± 2.1 | –
286.65 K | 1023.99 ± 2.2 | 1586.2 ± 2.1 | –
286.9 K | 1023.83 ± 2.2 | 1585.4 ± 2.1 | –
287.15 K | 1023.66 ± 2.2 | 1584.5 ± 2.1 | –
287.4 K | 1023.49 ± 2.2 | 1583.7 ± 2.1 | –
287.65 K | 1023.32 ± 2.2 | 1582.8 ± 2.1 | –
287.9 K | 1023.15 ± 2.2 | 1582 ± 2.1 | –
288.15 K | 1022.99 ± 2.2 | 1581.2 ± 2.1 | 450.93 ± 67
288.4 K | 1022.82 ± 2.2 | 1580.3 ± 2.1 | –
288.65 K | 1022.65 ± 2.2 | 1579.5 ± 2.1 | –
288.9 K | 1022.48 ± 2.2 | 1578.7 ± 2.1 | –
289.15 K | 1022.31 ± 2.2 | 1577.8 ± 2.1 | –
289.4 K | 1022.14 ± 2.2 | 1577 ± 2.1 | –
289.65 K | 1021.97 ± 2.2 | 1576.2 ± 2.1 | –
289.9 K | 1021.81 ± 2.2 | 1575.3 ± 2.1 | –
290.15 K | 1021.64 ± 2.2 | 1574.5 ± 2.1 | –
290.4 K | 1021.47 ± 2.2 | 1573.7 ± 2.1 | –
290.65 K | 1021.3 ± 2.2 | 1572.9 ± 2.1 | 368.78 ± 50
290.9 K | 1021.13 ± 2.2 | 1572 ± 2.1 | –
291.15 K | 1020.96 ± 2.2 | 1571.2 ± 2.1 | –
291.4 K | 1020.79 ± 2.2 | 1570.4 ± 2.1 | –
291.65 K | 1020.62 ± 2.2 | 1569.6 ± 2.1 | –
291.9 K | 1020.45 ± 2.2 | 1568.8 ± 2.1 | –
292.15 K | 1020.28 ± 2.2 | 1568 ± 2.1 | –
292.4 K | 1020.12 ± 2.2 | 1567.2 ± 2.1 | –
292.65 K | 1019.95 ± 2.2 | 1566.3 ± 2.1 | –
292.9 K | 1019.78 ± 2.2 | 1565.5 ± 2.1 | –
293.15 K | 1019.61 ± 2.2 | 1564.7 ± 2.1 | 319.63 ± 40
293.4 K | 1019.44 ± 2.2 | 1563.9 ± 2.1 | –
293.65 K | 1019.27 ± 2.2 | 1563.1 ± 2.1 | –
293.9 K | 1019.1 ± 2.2 | 1562.3 ± 2.1 | –
294.15 K | 1018.93 ± 2.2 | 1561.5 ± 2.1 | –
294.4 K | 1018.76 ± 2.2 | 1560.7 ± 2.1 | –
294.65 K | 1018.59 ± 2.2 | 1559.9 ± 2.1 | –
294.9 K | 1018.42 ± 2.2 | 1559.1 ± 2.1 | –
295.15 K | 1018.25 ± 2.2 | 1558.3 ± 2.1 | –
295.4 K | 1018.08 ± 2.2 | 1557.5 ± 2.1 | –
295.65 K | 1017.91 ± 2.2 | 1556.7 ± 2.1 | 273.03 ± 32
295.9 K | 1017.74 ± 2.2 | 1555.9 ± 2.1 | –
296.15 K | 1017.57 ± 2.2 | 1555.1 ± 2.1 | –
296.4 K | 1017.4 ± 2.2 | 1554.3 ± 2.1 | –
296.65 K | 1017.23 ± 2.2 | 1553.5 ± 2.1 | –
296.9 K | 1017.06 ± 2.2 | 1552.7 ± 2.1 | –
297.15 K | 1016.89 ± 2.2 | 1551.9 ± 2.1 | –
297.4 K | 1016.72 ± 2.2 | 1551.1 ± 2.1 | –
297.65 K | 1016.55 ± 2.2 | 1550.3 ± 2.1 | –
297.9 K | 1016.38 ± 2.2 | 1549.6 ± 2.1 | –
298.15 K | 1016.21 ± 2.2 | 1548.8 ± 2.1 | 234.44 ± 25
298.4 K | 1016.03 ± 2.2 | 1548 ± 2.1 | –
298.65 K | 1015.86 ± 2.2 | 1547.2 ± 2.1 | –
298.9 K | 1015.69 ± 2.2 | 1546.4 ± 2.1 | –
299.15 K | 1015.52 ± 2.2 | 1545.6 ± 2.1 | –
299.4 K | 1015.35 ± 2.2 | 1544.8 ± 2.1 | –
299.65 K | 1015.19 ± 2.2 | 1544 ± 2.1 | –
299.9 K | 1015.02 ± 2.2 | 1543.3 ± 2.1 | –
300.15 K | 1014.85 ± 2.2 | 1542.5 ± 2.1 | –
300.4 K | 1014.69 ± 2.2 | 1541.7 ± 2.1 | –
300.65 K | 1014.52 ± 2.2 | 1540.9 ± 2.1 | 205.32 ± 20
300.9 K | 1014.36 ± 2.2 | 1540.1 ± 2.1 | –
301.15 K | 1014.19 ± 2.2 | 1539.3 ± 2.1 | –
301.4 K | 1014.03 ± 2.2 | 1538.5 ± 2.1 | –
301.65 K | 1013.86 ± 2.1 | 1537.8 ± 2.1 | –
301.9 K | 1013.7 ± 2.1 | 1537 ± 2.1 | –
302.15 K | 1013.53 ± 2.1 | 1536.2 ± 2.1 | –
302.4 K | 1013.36 ± 2.1 | 1535.4 ± 2.1 | –
302.65 K | 1013.2 ± 2.1 | 1534.6 ± 2.1 | –
302.9 K | 1013.03 ± 2.1 | 1533.9 ± 2.1 | –
303.15 K | 1012.86 ± 2.1 | 1533.1 ± 2.1 | 175.84 ± 15
303.4 K | 1012.7 ± 2.1 | 1532.3 ± 2.1 | –
303.65 K | 1012.53 ± 2.1 | 1531.5 ± 2.1 | –
303.9 K | 1012.37 ± 2.1 | 1530.7 ± 2.1 | –
304.15 K | 1012.2 ± 2.1 | 1530 ± 2.1 | –
304.4 K | 1012.03 ± 2.1 | 1529.2 ± 2.1 | –
304.65 K | 1011.87 ± 2.1 | 1528.4 ± 2.1 | –
304.91 K | 1011.7 ± 2.1 | 1527.6 ± 2.1 | –
305.15 K | 1011.53 ± 2.1 | 1526.8 ± 2.1 | –
305.4 K | 1011.37 ± 2.1 | 1526.1 ± 2.1 | –
305.65 K | 1011.19 ± 2.1 | 1525.3 ± 2.1 | 147.42 ± 11
305.9 K | 1011.03 ± 2.1 | 1524.5 ± 2.1 | –
306.15 K | 1010.86 ± 2.1 | 1523.8 ± 2.1 | –
306.4 K | 1010.69 ± 2.1 | 1523 ± 2.1 | –
306.65 K | 1010.52 ± 2.1 | 1522.2 ± 2.1 | –
306.9 K | 1010.36 ± 2.1 | 1521.5 ± 2.1 | –
307.15 K | 1010.19 ± 2.1 | 1520.7 ± 2.1 | –
307.4 K | 1010.02 ± 2.1 | 1519.9 ± 2.1 | –
307.65 K | 1009.85 ± 2.1 | 1519.1 ± 2.1 | –
307.9 K | 1009.68 ± 2.1 | 1518.4 ± 2.1 | –
